Our source for the IC50 values is patent US9464076B2, “Benzothiophene derivative” (Daiichi Sankyo Company, Limited, priority 2013, dated 2016).

Counter-ions that a name gives are not always drawn.

Chain of PDE10A (Q9Y233 whole entry): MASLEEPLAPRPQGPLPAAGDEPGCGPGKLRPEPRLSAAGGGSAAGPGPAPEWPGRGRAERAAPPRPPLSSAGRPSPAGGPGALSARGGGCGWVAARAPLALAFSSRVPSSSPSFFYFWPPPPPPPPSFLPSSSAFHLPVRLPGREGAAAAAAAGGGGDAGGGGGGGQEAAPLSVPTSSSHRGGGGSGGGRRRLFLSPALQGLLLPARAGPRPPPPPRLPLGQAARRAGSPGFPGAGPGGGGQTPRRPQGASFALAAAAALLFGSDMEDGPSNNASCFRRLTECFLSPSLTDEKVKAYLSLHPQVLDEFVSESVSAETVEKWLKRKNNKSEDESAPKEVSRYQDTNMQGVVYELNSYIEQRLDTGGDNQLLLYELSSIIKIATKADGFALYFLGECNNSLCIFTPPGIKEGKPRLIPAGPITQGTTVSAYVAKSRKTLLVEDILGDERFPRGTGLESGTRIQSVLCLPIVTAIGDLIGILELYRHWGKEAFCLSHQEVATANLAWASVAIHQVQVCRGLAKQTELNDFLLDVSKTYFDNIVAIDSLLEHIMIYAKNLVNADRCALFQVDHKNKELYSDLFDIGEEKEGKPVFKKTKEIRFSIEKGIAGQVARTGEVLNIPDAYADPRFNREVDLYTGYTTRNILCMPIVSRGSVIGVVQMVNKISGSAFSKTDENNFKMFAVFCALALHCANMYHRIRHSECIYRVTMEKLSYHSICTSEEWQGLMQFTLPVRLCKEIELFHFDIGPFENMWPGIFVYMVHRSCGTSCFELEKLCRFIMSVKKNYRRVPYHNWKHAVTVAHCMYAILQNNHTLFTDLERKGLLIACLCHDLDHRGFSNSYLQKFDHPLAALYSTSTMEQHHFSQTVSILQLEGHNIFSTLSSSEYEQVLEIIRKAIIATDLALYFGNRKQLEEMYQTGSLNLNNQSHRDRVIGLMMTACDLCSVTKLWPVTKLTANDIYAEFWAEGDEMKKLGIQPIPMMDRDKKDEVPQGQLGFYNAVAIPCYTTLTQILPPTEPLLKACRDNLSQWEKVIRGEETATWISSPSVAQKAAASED

The assay deals with PDE10A (Homo sapiens (Human), UniProt Q9Y233). The assay can be described thus: Measurement of PDE10A inhibitory activity-2 (PDE10A fraction prepared from MOLT-4 cells). The conditions noted are these: PDE10A fraction from MOLT-4 cells (peak around 250 mM NaCl). The assay is classed as biochemical. On the procedure:
A human acute lymphoblastic lymphoma T cell line MOLT-4 (which can be purchased under ATCC No. CRL-1582 from ATCC) was cultured in an RPMI1640 medium containing 10% fetal bovine serum to obtain 5×10^8 MOLT-4 cells. The cells were recovered by centrifugation and suspended in 10 ml of buffer solution A (25 mM Tris-HCl, 5 mM 2-mercaptoethanol, 2 mM benzamidine, 2 mM EDTA, and 0.1 mM 4-(2-aminoethyl)benzenesulfonyl hydrochloride, pH 7.5). The cells were homogenized using a Polytron homogenizer and centrifuged (4° C., 25,000 g, 10 minutes). Then, the supernatant was further ultracentrifuged (4° C., 100,000 g, 60 minutes). The obtained supernatant was filtered through a 0.2 μm filter to obtain a soluble fraction.
HiTrap Q HP column (5 ml×2, GE Healthcare Japan Corp.) equilibrated with buffer solution A was charged with the obtained soluble fraction. Phosphodiesterase was eluted with 300 ml of buffer solution A containing a linear gradient solution of 0 to 0.8 M NaCl to recover sixty 5-ml fractions. Each fraction was tested for cAMP-metabolizing phosphodiesterase activity.
On the other hand, total RNA was prepared from Jurkat cells, one type of human T cell, and similarly subjected to RT-PCR. […] Eur J Biochem. 1999, 266 (3), 1118-2 has reported that PDE10A from the rat striatum and testis is eluted as an active peak centered around 250 mM NaCl.
For these reasons, this fraction was used as a solution for the evaluation of PDE10A inhibitory activity. The obtained solution was used to calculate the inhibitory activity (IC50) of a test compound in the same way as in the aforementioned test.
For orientation: IC50 means the point on the concentration scale where inhibition reaches its midpoint. A higher IC50 goes with a need for much substance. As to `COCc1ccc(C(C)=O)c2sc(C(=O)Nc3cc(CN4CCC(F)CC4)c4ccccc4n3)c(C)c12` [Example 46, 7-Acetyl-N-(4-((4-fluoropiperidin-1-yl)methyl)quinolin-2-yl)-4-(methoxymethyl)-3-methylbenzo[b]thiophene-2-carboxamide], the IC50 is 0.44 nM.
To `COCc1ccc(C(C)=O)c2sc(C(=O)Nc3cc(CN4CCC(F)(F)C4)c4ccccc4n3)c(C)c12` [Example 48, 7-Acetyl-N-(4-((3,3-difluoropyrrolidin-1-yl)methyl)quinolin-2-yl)-4-(methoxymethyl)-3-methylbenzo[b]thiophene-2-carboxamide] belongs 0.85 nM; to `COCc1ccc(C(C)=O)c2sc(C(=O)Nc3cc(C(=O)N4CC[C@@H](O)C4)c4ccccc4n3)c(C)c12` [Example 50, (R)-7-Acetyl-N-(4-((3-hydroxypyrrolidin-1-yl)carbonyl)quinolin-2-yl)-4-(methoxymethyl)-3-methylbenzo[b]thiophene-2-carboxamide], 2.6 nM; to `CC(=O)c1ccc(C(C)=O)c2c(C)c(C(=O)Nc3cc(CN4CCC(O)C4)c4ccccc4n3)sc12` (stereo not drawn) [Example 51, 4,7-Diacetyl-N-(4-((3-hydroxypyrrolidin-1-yl)methyl)quinolin-2-yl)-3-methylbenzo[b]thiophene-2-carboxamide], 1.5 nM.
`CC(=O)c1ccc(C(C)=O)c2c(C)c(C(=O)Nc3cc(CN4CC(O)C4)c4ccccc4n3)sc12` [Example 52, 4,7-Diacetyl-N-(4-((3-hydroxyazetidin-1-yl)methyl)quinolin-2-yl)-3-methylbenzo[b]thiophene-2-carboxamide] showed a 50% inhibitory concentration (IC50) of 1.2 nM.
For the compound `COCc1ccc(C(C)=O)c2sc(C(=O)Nc3cc(Cl)c4ccccc4n3)c(C)c12` [Example 53, 7-Acetyl-N-(4-chloroquinolin-2-yl)-4-(methoxymethyl)-3-methylbenzo[b]thiophene-2-carboxamide], the IC50 was 18 nM.
To `COCc1ccc(C(C)=O)c2sc(C(=O)Nc3cc(N4CCOCC4)c4ccccc4n3)c(C)c12` [Example 56, 7-Acetyl-4-(methoxymethyl)-3-methyl-N-(4-morpholinoquinolin-2-yl)benzo[b]thiophene-2-carboxamide] belongs 1.1 nM; to `COCc1ccc(C(=O)C(C)(C)C)c2sc(C(=O)Nc3cc(CN4CC[C@@H](O)C4)c4ccccc4n3)c(C)c12` [Example 58, (R)—N-(4-((3-Hydroxypyrrolidin-1-yl)methyl)quinolin-2-yl)-4-(methoxymethyl)-3-methyl-7-pivaloylbenzo[b]thiophene-2-carboxamide dihydrochloride], 0.085 nM; to `CCOCc1cccc2nc(NC(=O)c3sc4c(C(C)=O)ccc(COC)c4c3C)ccc12` [Example 70, 7-Acetyl-N-(5-(ethoxymethyl)quinolin-2-yl)-4-(methoxymethyl)-3-methylbenzo[b]thiophene-2-carboxamide], 1.6 nM.
In turn, `COCc1ccc(C(C)=O)c2sc(C(=O)Nc3ccc4c(COC(F)F)cccc4n3)c(C)c12` [Example 73, 7-Acetyl-N-(5-((difluoromethoxy)methyl)quinolin-2-yl)-4-(methoxymethyl)-3-methylbenzo[b]thiophene-2-carboxamide hydrochloride] showed a half-maximal inhibitory concentration (IC50) of 2 nM.
Regarding `COCc1ccc(C(C)=O)c2sc(C(=O)Nc3ccc4c(C(C)(C)O)cccc4n3)c(C)c12` [Example 74, 7-Acetyl-N-(5-(2-hydroxypropan-2-yl)quinolin-2-yl)-4-(methoxymethyl)-3-methylbenzo[b]thiophene-2-carboxamide], it took 3 nM to reach half-maximal inhibition (IC50).
With `COCc1ccc(C(C)=O)c2sc(C(=O)Nc3ccc4c(C(C)=O)cccc4n3)c(C)c12` [Example 75, 7-Acetyl-N-(5-acetylquinolin-2-yl)-4-(methoxymethyl)-3-methylbenzo[b]thiophene-2-carboxamide], the 50% inhibitory concentration (IC50) amounted to 0.91 nM.
